This note sets out measurements from US9114077B2, “Nanocrystals for use in topical cosmetic formulations and method of production thereof” (priority 2006, dated 2015).

Data set [1] is classed as physicochemical. Here is the method: 5% Rutin micro-sized powder was dispersed in water, shaken and subsequently centrifuged at 4,000 rpm and then filtered through a 0.45 μm filter to remove any potential non-dissolved fine crystals. A Rutin nanosuspension was treated the same way but using a 0.2 μm filter.
For data set [2], the system named is skin of volunteers (UV erythem). In words: photo-protective potential after topical application in vivo (MED for UV erythem, SPF). As to conditions: human volunteers, 2 mg/cm^2 once daily on 4 days, UV irradiation day 4, 15 min after application. The source says: The Rutin and the Hesperidin nanosuspensions were investigated in vivo regarding their photo-protective potential compared to solutions of a water-soluble Rutin conjugate with saccharide (example 15). Topical application of the anti-oxidants should increase the dose required to generate a UV erythem. The higher the photo-protective effect, the higher will be the increase in the MED for UV erythem generation. Based on the ratio MED of treated area/MED untreated area a sun protection factor can be calculated. […] To very well differentiate in efficiency between the preparations, the formulations were applied only over 4 days (day 1, 2, 3 and 4) and only once a day. […] It has to be noted that the selected concentration of Rutin saccharide was equivalent to 5% Rutin.
Various formulations were investigated regarding their photo-protective potential after topical application in vivo. These formulations contained antioxidants and the photo-protective potential was evaluated by assessing the MED for generating an UV erythem (MED—minimal dose required for generating an erythem, minimal erythem dose). The sun susceptibility of the skin of volunteers was assessed after four times of application (once daily) of the formulations in comparison to untreated skin. Based on this a sun protection factor (SPF) was calculated.
The study was performed as a placebo controlled double blind study. Three male and three female volunteers with normal skin of photo type II to III took part. The medium age of the female volunteers was 49.6±9.8 years (38.8-57.4 years). Topical application of the formulations took place on 4 subsequent days (2 mg/cm^2), once daily. On day 4 eradiation by UV was performed 15 minutes after application of the formulations to the skin using a sun simulator SU6p (m.u.t. GmbH, Wedel/Germany). The sun simulator created 6 single doses with a geometric increment of 25%. The 5 test areas were on the back of the volunteers (4 areas for the formulations, 1 untreated control area).
A sun protection factor was defined as the ratio of the MED of the formulation treated area to the MED of the untreated area.

Take `C[C@@H]1O[C@@H](OC[C@H]2O[C@@H](Oc3c(-c4ccc(O)c(O)c4)oc4cc(O)cc(O)c4c3=O)[C@H](O)[C@@H](O)[C@@H]2O)[C@H](O)[C@H](O)[C@H]1O` [microcrystalline Rutin suspension, Rutin]: the “saturation solubility (concentration of dissolved Rutin in filtrate)” value in data set [1] is 0.0079%.

Turning to `CC(=O)Oc1c(C)c(C)c2c(c1C)CCC(C)(CCC[C@H](C)CCC[C@H](C)CCCC(C)C)O2` (stereo partly drawn) [α-tocopherol acetate], the figures for the “sun protection factor (SPF) = ratio MED treated area/MED untreated area (partly given as MED)” value in data set [2] and in data set [2] (listed as alpha-tocopherol acetate) were 0.85±0.23 and 0.85, respectively.

As to α-G Rutin PS, the figures for the “sun protection factor (SPF) = ratio MED treated area/MED untreated area (partly given as MED)” value in data set [2] (listed as AGRPS), in data set [2] (listed as Rutin derivative solution) and in data set [2] (listed as Rutin saccharide) were 1.27±0.31, 1.27 and 1.27, respectively.
